Like-named read-outs stand apart in the source and are kept apart here.
What was measured:
[1] = target: recombinant human Mcl-1 (residues 171-327) / Bim interaction (Homo sapiens (Human), UniProt Q07820); test: biochemical; assay type: binding; conditions: read-out: Mcl-1 HTRF IC50
[2] = tested on: human multiple myeloma cell line, OPM-2; test: Cell viability assay (OPM-2 10 FBS), CellTiter-Glo; assay type: cell-based
In short: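 IC50 values come from 4-parameter logistic fits of luminescence signals reflecting cell viability. Treatment lasted 16 h at 37 °C in complete medium with 10% FBS, starting from 3000 cells/well.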

[3] = 0.1 nM Mcl-1(171-327), 0.05 nM biotin-Bim (51-76)
[4] = Homo sapiens, OPM-2, 16 h, read-out: OPM-2 10% FBS IC50 IP, OPM-2 cells, 10% FBS, 16 h incubation
[5] = TR-FRET, Mcl-1(171-327) / biotin-Bim (51-76)
[6] = read-out: OPM-2 10% FBS IC50 IP, OPM-2 cells, 10% FBS, 16 h, CellTiter-Glo
[7] = Homo sapiens, OPM-2, 16 h, read-out: OPM-2 10% FBS IC50 IP, OPM-2 cells, 10% FBS, 16 h, CellTiter-Glo

Sequence of recombinant human Mcl-1 (residues 171-327) / Bim interaction (Q07820 171-327): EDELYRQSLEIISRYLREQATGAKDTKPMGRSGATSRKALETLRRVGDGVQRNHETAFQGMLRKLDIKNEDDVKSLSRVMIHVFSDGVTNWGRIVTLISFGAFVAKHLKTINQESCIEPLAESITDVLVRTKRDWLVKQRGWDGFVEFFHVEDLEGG

SMILES	IC50 [1, 3]	IC50 [2, 4]	IC50 [1, 5]	IC50 [2, 6]	IC50 [2, 7]
CO[C@]1(CN2CCN(CC(C)(C)C)CC2)/C=C/C[C@H](C)[C@@H](C)S(=O)(=O)NC(=O)c2ccc3c(c2)N(C[C@@H]2CC[C@H]21)C[C@@]1(CCCc2cc(Cl)ccc21)CO3 [Example 153, (1S,3′R,6′R,7′R,8′E,11′S,12′R)-6-chloro-7′-((4-(2,2-dimethylpropyl)-1-piperazinyl)methyl)-7′-methoxy-11′,12′-dimethyl-3,4-dihydro-2H,15′H-spiro[naphthalene-1,22′-[20]oxa[13]thia[1,14]diazatetracyclo [14.7.2.0~3,6~.0~19,24~]pentacosa[8,16,18,24]tetraen]-15′-one 13′,13′-dioxide]	0.96 nM	10800 nM			
C[C@@H]1[C@@H](C)C/C=C/[C@@](O)([C@@H]2CCN(C)C2=O)[C@@H]2CC[C@H]2CN2C[C@@]3(CCCc4cc(Cl)ccc43)COc3ccc(cc32)C(=O)NS1(=O)=O [Example 100106, (1S,3′R,6′R,7′S,8′E,11′S,12′R)-6-chloro-7′-hydroxy-11′,12′-dimethyl-7′-((3S)-1-methyl-2-oxo-3-pyrrolidinyl)-3,4-dihydro-2H,15′H-spiro[naphthalene-1,22′-[20]oxa[13]thia[1,14]diazatetracyclo [14.7.2.0~3,6~.0~19,24~]pentacosa[8,16,18,24]tetraen]-15′-one 13′,13′-dioxide]			0.143 nM	121 nM	
CO[C@@]1(CN2CCN(C3COC3)CC2)/C=C/C[C@H](C)[C@@H](C)S(=O)(=O)NC(=O)c2ccc3c(c2)N(C[C@@H]2CC[C@H]21)C[C@@]1(CCCc2cc(Cl)ccc21)CO3 [Example 250, (1S,3′R,6′R,7′S,8′E,11′S,12′R)-6-chloro-7′-methoxy-11′,12′-dimethyl-7′-((4-(3-oxetanyl)-1-piperazinyl)methyl)-3,4-dihydro-2H,15′H-spiro[naphthalene-1,22′-[20]oxa[13]thia[1,14]diazatetracyclo [14.7.2.0~3,6~.0~19,24~]pentacosa[8,16,18,24]tetraen]-15′-one 13′,13′-dioxide]	0.071 nM	47 nM			
C[C@@H]1[C@@H](C)C/C=C/[C@@](O)(CC(=O)N2CCN3CCOC[C@H]3C2)[C@@H]2CC[C@H]2CN2C[C@@]3(CCCc4cc(Cl)ccc43)COc3ccc(cc32)C(=O)NS1(=O)=O [Example 100311, (1S,3′R,6′R,7′S,8′E,11′S,12′R)-6-chloro-7′-(2-((9aR)-hexahydropyrazino[2,1-c][1,4]oxazin-8(1H)-yl)-2-oxoethyl)-7′-hydroxy-11′,12′-dimethyl-3,4-dihydro-2H,15′H-spiro[naphthalene-1,22′-[20]oxa[13]thia[1,14]diazatetracyclo [14.7.2.0~3,6~.0~19,24~]pentacosa[8,16,18,24]tetraen]-15′-one 13′,13′-dioxide]			1.03 nM		1190 nM
CCOCCN1CCN(C[C@]2(OC)/C=C/C[C@H](C)[C@@H](C)S(=O)(=O)NC(=O)c3ccc4c(c3)N(C[C@@H]3CC[C@H]32)C[C@@]2(CCCc3cc(Cl)ccc32)CO4)CC1 [Example 303, (1S,3′R,6′R,7′S,8′E,11′S,12′R)-6-chloro-7′-((4-(2-ethoxyethyl)-1-piperazinyl)methyl)-7′-methoxy-11′,12′-dimethyl-3,4-dihydro-2H,15′H-spiro[naphthalene-1,22′-[20]oxa[13]thia[1,14]diazatetracyclo [14.7.2.0~3,6~.0~19,24~]pentacosa[8,16,18,24]tetraen]-15′-one 13′,13′-dioxide]	0.15 nM	101 nM			
Cc1ccnc(C[C@@]2(O)/C=C/C[C@H](C)[C@@H](C)S(=O)(=O)NC(=O)c3ccc4c(c3)N(C[C@@H]3CC[C@H]32)C[C@@]2(CCCc3cc(Cl)ccc32)CO4)c1 [Example 100532, (1S,3′R,6′R,7′R,8′E,11′S,12′R)-6-chloro-7′-hydroxy-11′,12′-dimethyl-7′-((4-methyl-2-pyridinyl)methyl)-3,4-dihydro-2H,15′H-spiro[naphthalene-1,22′-[20]oxa[13]thia[1,14]diazatetracyclo [14.7.2.0~3,6~.0~19,24~]pentacosa[8,16,18,24]tetraen]-15′-one 13′,13′-dioxide]			0.053 nM		8640 nM
COC(=O)C[C@]1(O)/C=C/C[C@H](C)[C@@H](C)S(=O)(=O)NC(=O)c2ccc3c(c2)N(C[C@@H]2CC[C@H]21)C[C@@]1(CCCc2cc(Cl)ccc21)CO3 [Example 100288, methyl ((1S,3′R,6′R,7′S,8′E,11′S,12′R)-6-chloro-7′-hydroxy-11′,12′-dimethyl-13′,13′-dioxido-15′-oxo-3,4-dihydro-2H-spiro[naphthalene-1,22′-[20]oxa[13]thia[1,14]diazatetracyclo [14.7.2.0~3,6~.0~19,24~]pentacosa[8,16,18,24]tetraen]-7′-yl)acetate]			0.103 nM		89 nM
CC[C@@H]1CC/C=C/[C@](CN2CCN3CCCC[C@@H]3C2)(OC)[C@@H]2CC[C@H]2CN2C[C@@]3(CCCc4cc(Cl)ccc43)COc3ccc(cc32)C(=O)NS1(=O)=O [Example 29, (1S,3′R,6′R,7′S,8′E,12′R)-6-chloro-12′-ethyl-7′-methoxy-7′-((9aR)-octahydro-2H-pyrido[1,2-a]pyrazin-2-ylmethyl)-3,4-dihydro-2H,15′H-spiro[naphthalene-1,22′-[20]oxa[13]thia[1,14]diazatetracyclo [14.7.2.0~3,6~.0~19,24~]pentacosa[8,16,18,24]tetraen]-15′-one 13′,13′-dioxide]	0.249 nM	186 nM			
C[C@@H]1[C@@H](C)C/C=C/[C@@](O)(C#CCO)[C@@H]2CC[C@H]2CN2C[C@@]3(CCCc4cc(Cl)ccc43)COc3ccc(cc32)C(=O)NS1(=O)=O [Example 100394, (1S,3′R,6′R,7′S,8′E,11′S,12′R)-6-chloro-7′-hydroxy-7′-(3-hydroxy-1-propyn-1-yl)-11′,12′-dimethyl-3,4-dihydro-2H,15′H-spiro[naphthalene-1,22′-[20]oxa[13]thia[1,14]diazatetracyclo [14.7.2.0~3,6~.0~19,24~]pentacosa[8,16,18,24]tetraen]-15′-one 13′,13′-dioxide]			0.242 nM	622 nM	
C=CC[C@@]1(O)/C=C/C[C@H](C)[C@@H](C)S(=O)(=O)NC(=O)c2ccc3c(c2)N(C[C@@H]2CC[C@H]21)C[C@@]1(CCCc2cc(Cl)ccc21)CO3 (single isomer, unassigned) [Example 100131]			0.163 nM		144 nM
COc1ncccc1[C@@]1(O)/C=C/C[C@H](C)[C@@H](C)S(=O)(=O)NC(=O)c2ccc3c(c2)N(C[C@@H]2CC[C@H]21)C[C@@]1(CCCc2cc(Cl)ccc21)CO3 (single isomer, unassigned) [Example 100334]			3.27 nM	1470 nM	
CO[C@@]1(CN2CCN3CCOC[C@@H]3C2)/C=C/C[C@H](C)[C@@H](CC2CCC2)S(=O)(=O)NC(=O)c2ccc3c(c2)N(C[C@@H]2CC[C@H]21)C[C@@]1(CCCc2cc(Cl)ccc21)CO3 [Example 39, (1S,3′R,6′R,7′S,8′E,11′S,12′R)-6-chloro-12′-(cyclobutylmethyl)-7′-((9aS)-hexahydropyrazino[2,1-c][1,4]oxazin-8(1H)-ylmethyl)-7′-methoxy-11′-methyl-3,4-dihydro-2H,15′H-spiro[naphthalene-1,22′-[20]oxa[13]thia[1,14]diazatetracyclo [14.7.2.0~3,6~.0~19,24~]pentacosa[8,16,18,24]tetraen]-15′-one 13′,13′-dioxide]	0.377 nM	389 nM			
CO[C@@]1(Cc2nc(CN3CCOCC3)c(C)o2)/C=C/C[C@H](C)[C@@H](C)S(=O)(=O)NC(=O)c2ccc3c(c2)N(C[C@@H]2CC[C@H]21)C[C@@]1(CCCc2cc(Cl)ccc21)CO3 [Example 100587, (1S,3′R,6′R,7′S,8′E,11′S,12′R)-6-chloro-7′-methoxy-11′,12′-dimethyl-7′-((5-methyl-4-(4-morpholinylmethyl)-1,3-oxazol-2-yl)methyl)-3,4-dihydro-2H,15′H-spiro[naphthalene-1,22′-[20]oxa[13]thia[1,14]diazatetracyclo [14.7.2.0~3,6~.0~19,24~]pentacosa[8,16,18,24]tetraen]-15′-one 13′,13′-dioxide]			0.136 nM		177 nM
C[C@@H]1[C@@H](C)CCC[C@](O)(CC(=S)N(C)C)[C@@H]2CC[C@H]2CN2C[C@@]3(CCCc4cc(Cl)ccc43)COc3ccc(cc32)C(=O)NS1(=O)=O (single isomer, unassigned) [Example 100172]			1.29 nM	1570 nM	
C[C@@H]1[C@@H](C)CCC[C@@](O)(CO)[C@@H]2CC[C@H]2CN2C[C@@]3(CCCc4cc(Cl)ccc43)COc3ccc(cc32)C(=O)NS1(=O)=O [Example 100053, (1S,3′R,6′R,7′S,11′S,12′R)-6-chloro-7′-hydroxy-7′-(hydroxymethyl)-11′,12′-dimethyl-3,4-dihydro-2H,15′H-spiro[naphthalene-1,22′-[20]oxa[13]thia[1,14]diazatetracyclo [14.7.2.0~3,6~.0~19,24~]pentacosa[16,18,24]trien]-15′-one 13′,13′-dioxide]			0.294 nM		609 nM
CCO[C@@]1(CN2CCN3CCOC[C@@H]3C2)/C=C/C[C@H](C)[C@@H](C)S(=O)(=O)NC(=O)c2ccc3c(c2)N(C[C@@H]2CC[C@H]21)C[C@@]1(CCCc2cc(Cl)ccc21)CO3 [Example 101, (1S,3′R,6′R,7′S,8′E,11′S,12′R)-6-chloro-7′-ethoxy-7′-((9aS)-hexahydropyrazino[2,1-c][1,4]oxazin-8(1H)-ylmethyl)-11′,12′-dimethyl-3,4-dihydro-2H,15′H-spiro[naphthalene-1,22′-[20]oxa[13]thia[1,14]diazatetracyclo [14.7.2.0~3,6~.0~19,24~]pentacosa[8,16,18,24]tetraen]-15′-one 13′,13′-dioxide]	0.196 nM	263 nM			

— patent US10821115B2, “Compounds that inhibit Mcl-1 protein” (priority 2017, dated 2020)
